{
  "source": "patent EP0003353A1",
  "about": "“A pharmaceutical composition for oral administration for treating hypertension” (Merck & Co., Inc., priority 1978, dated 1979)",
  "tested_on": "spontaneously hypertensive (SH) rats",
  "test": "Mean arterial pressure of conscious SH rats, direct measurement by cannulation of the caudal artery",
  "format": "in vivo",
  "conditions": "for Mean arterial pressure at hours after treatment 0: 0 h; for Mean arterial pressure at hours after treatment 1/2: 1/2 h; for Mean arterial pressure at hours after treatment 1: 1 h; for Mean arterial pressure at hours after treatment 2: 2 h; for Mean arterial pressure at hours after treatment 4: 4 h; for Mean arterial pressure at hours after treatment 8: 8 h; for Mean arterial pressure at hours after treatment 12: 12 h; for Mean arterial pressure at hours after treatment 18: 18 h; for Mean arterial pressure at hours after treatment 24: 24 h",
  "protocol": "The test procedure used is substantially as follows: • The test animals used were conscious, male, SH rats weighing about 290 to about 340 grams. The arterial blood pressure was measured by a direct technique involving cannulation of the caudal artery. Initial blood pressure reading was recorded. The decarboxylase inhibitor was then administered intraperitoneally (i.p.) and about 5 minutes later the L-a-methyl-p-tyrosine was given [(i.p. or orally (p.o.)]. The blood pressure was then continuously recorded at 1/2 hour intervals for 24 hours. The effect on blood pressure of the decarboxylase inhibitor and the L-a-methyl-p-tyrosine alone was also obtained by this test method. The results of representative tests are in the following table: […]",
  "key": {"[1]": {"conditions": "Test No. 2, Carbidopa 25 mg/kg i.p."}, "[2]": {"conditions": "Test No. 13, Carbidopa 25 mg/kg i.p."}, "[3]": {"conditions": "Test No. 3, α-methyl-p-tyrosine 5 mg/kg i.p."}, "[4]": {"conditions": "Test No. 4, α-methyl-p-tyrosine 20 mg/kg i.p."}, "[5]": {"conditions": "Test No. 5, α-methyl-p-tyrosine 40 mg/kg i.p."}, "[6]": {"conditions": "Test No. 6, α-methyl-p-tyrosine 80 mg/kg i.p."}, "[7]": {"conditions": "Test No. 14, α-Methyl-p-tyrosine 80 mg/kg p.o."}},
  "data": [
    {"smiles": "C[C@@](Cc1ccc(O)c(O)c1)(NN)C(=O)O", "note": "[Carbidopa]", "values": [
      {"measurement": "Mean arterial pressure at hours after treatment 0", "setting": "[1]", "value": 167, "unit": "mm Hg"},
      {"measurement": "Mean arterial pressure at hours after treatment 1/2", "setting": "[1]", "value": 166, "unit": "mm Hg"},
      {"measurement": "Mean arterial pressure at hours after treatment 1", "setting": "[1]", "value": 164, "unit": "mm Hg"},
      {"measurement": "Mean arterial pressure at hours after treatment 2", "setting": "[1]", "value": 166, "unit": "mm Hg"},
      {"measurement": "Mean arterial pressure at hours after treatment 4", "setting": "[1]", "value": 158, "unit": "mm Hg"},
      {"measurement": "Mean arterial pressure at hours after treatment 8", "setting": "[1]", "value": 167, "unit": "mm Hg"},
      {"measurement": "Mean arterial pressure at hours after treatment 12", "setting": "[1]", "value": 172, "unit": "mm Hg"},
      {"measurement": "Mean arterial pressure at hours after treatment 18", "setting": "[1]", "value": 172, "unit": "mm Hg"},
      {"measurement": "Mean arterial pressure at hours after treatment 24", "setting": "[1]", "value": 162, "unit": "mm Hg"},
      {"measurement": "Mean arterial pressure at hours after treatment 0", "setting": "[2]", "value": 184, "unit": "mm Hg"},
      {"measurement": "Mean arterial pressure at hours after treatment 1/2", "setting": "[2]", "value": 184, "unit": "mm Hg"},
      {"measurement": "Mean arterial pressure at hours after treatment 1", "setting": "[2]", "value": 180, "unit": "mm Hg"},
      {"measurement": "Mean arterial pressure at hours after treatment 2", "setting": "[2]", "value": 178, "unit": "mm Hg"},
      {"measurement": "Mean arterial pressure at hours after treatment 4", "setting": "[2]", "value": 177, "unit": "mm Hg"},
      {"measurement": "Mean arterial pressure at hours after treatment 8", "setting": "[2]", "value": 184, "unit": "mm Hg"},
      {"measurement": "Mean arterial pressure at hours after treatment 12", "setting": "[2]", "value": 183, "unit": "mm Hg"},
      {"measurement": "Mean arterial pressure at hours after treatment 18", "setting": "[2]", "value": 185, "unit": "mm Hg"},
      {"measurement": "Mean arterial pressure at hours after treatment 24", "setting": "[2]", "value": 182, "unit": "mm Hg"}
    ]},
    {"smiles": "C[C@](N)(Cc1ccc(O)cc1)C(=O)O", "note": "[α-methyl-p-tyrosine, L-α-methyl-p-tyrosine]", "values": [
      {"measurement": "Mean arterial pressure at hours after treatment 0", "setting": "[3]", "value": 165, "unit": "mm Hg"},
      {"measurement": "Mean arterial pressure at hours after treatment 1/2", "setting": "[3]", "value": 155, "unit": "mm Hg"},
      {"measurement": "Mean arterial pressure at hours after treatment 1", "setting": "[3]", "value": 162, "unit": "mm Hg"},
      {"measurement": "Mean arterial pressure at hours after treatment 2", "setting": "[3]", "value": 160, "unit": "mm Hg"},
      {"measurement": "Mean arterial pressure at hours after treatment 4", "setting": "[3]", "value": 161, "unit": "mm Hg"},
      {"measurement": "Mean arterial pressure at hours after treatment 8", "setting": "[3]", "value": 167, "unit": "mm Hg"},
      {"measurement": "Mean arterial pressure at hours after treatment 12", "setting": "[3]", "value": 164, "unit": "mm Hg"},
      {"measurement": "Mean arterial pressure at hours after treatment 18", "setting": "[3]", "value": 168, "unit": "mm Hg"},
      {"measurement": "Mean arterial pressure at hours after treatment 24", "setting": "[3]", "value": 164, "unit": "mm Hg"},
      {"measurement": "Mean arterial pressure at hours after treatment 0", "setting": "[4]", "value": 165, "unit": "mm Hg"},
      {"measurement": "Mean arterial pressure at hours after treatment 1/2", "setting": "[4]", "value": 152, "unit": "mm Hg"},
      {"measurement": "Mean arterial pressure at hours after treatment 1", "setting": "[4]", "value": 159, "unit": "mm Hg"},
      {"measurement": "Mean arterial pressure at hours after treatment 2", "setting": "[4]", "value": 157, "unit": "mm Hg"},
      {"measurement": "Mean arterial pressure at hours after treatment 4", "setting": "[4]", "value": 146, "unit": "mm Hg"},
      {"measurement": "Mean arterial pressure at hours after treatment 8", "setting": "[4]", "value": 156, "unit": "mm Hg"},
      {"measurement": "Mean arterial pressure at hours after treatment 12", "setting": "[4]", "value": 155, "unit": "mm Hg"},
      {"measurement": "Mean arterial pressure at hours after treatment 18", "setting": "[4]", "value": 161, "unit": "mm Hg"},
      {"measurement": "Mean arterial pressure at hours after treatment 24", "setting": "[4]", "value": 166, "unit": "mm Hg"},
      {"measurement": "Mean arterial pressure at hours after treatment 0", "setting": "[5]", "value": 166, "unit": "mm Hg"},
      {"measurement": "Mean arterial pressure at hours after treatment 1/2", "setting": "[5]", "value": 148, "unit": "mm Hg"},
      {"measurement": "Mean arterial pressure at hours after treatment 1", "setting": "[5]", "value": 152, "unit": "mm Hg"},
      {"measurement": "Mean arterial pressure at hours after treatment 2", "setting": "[5]", "value": 145, "unit": "mm Hg"},
      {"measurement": "Mean arterial pressure at hours after treatment 4", "setting": "[5]", "value": 135, "unit": "mm Hg"},
      {"measurement": "Mean arterial pressure at hours after treatment 8", "setting": "[5]", "value": 140, "unit": "mm Hg"},
      {"measurement": "Mean arterial pressure at hours after treatment 12", "setting": "[5]", "value": 134, "unit": "mm Hg"},
      {"measurement": "Mean arterial pressure at hours after treatment 18", "setting": "[5]", "value": 130, "unit": "mm Hg"},
      {"measurement": "Mean arterial pressure at hours after treatment 24", "setting": "[5]", "value": 135, "unit": "mm Hg"},
      {"measurement": "Mean arterial pressure at hours after treatment 0", "setting": "[6]", "value": 167, "unit": "mm Hg"},
      {"measurement": "Mean arterial pressure at hours after treatment 1/2", "setting": "[6]", "value": 166, "unit": "mm Hg"},
      {"measurement": "Mean arterial pressure at hours after treatment 1", "setting": "[6]", "value": 158, "unit": "mm Hg"},
      {"measurement": "Mean arterial pressure at hours after treatment 2", "setting": "[6]", "value": 146, "unit": "mm Hg"},
      {"measurement": "Mean arterial pressure at hours after treatment 4", "setting": "[6]", "value": 138, "unit": "mm Hg"},
      {"measurement": "Mean arterial pressure at hours after treatment 8", "setting": "[6]", "value": 131, "unit": "mm Hg"},
      {"measurement": "Mean arterial pressure at hours after treatment 12", "setting": "[6]", "value": 130, "unit": "mm Hg"},
      {"measurement": "Mean arterial pressure at hours after treatment 18", "setting": "[6]", "value": 136, "unit": "mm Hg"},
      {"measurement": "Mean arterial pressure at hours after treatment 24", "setting": "[6]", "value": 130, "unit": "mm Hg"},
      {"measurement": "Mean arterial pressure at hours after treatment 0", "setting": "[7]", "value": 169, "unit": "mm Hg"},
      {"measurement": "Mean arterial pressure at hours after treatment 1/2", "setting": "[7]", "value": 165, "unit": "mm Hg"},
      {"measurement": "Mean arterial pressure at hours after treatment 1", "setting": "[7]", "value": 166, "unit": "mm Hg"},
      {"measurement": "Mean arterial pressure at hours after treatment 2", "setting": "[7]", "value": 161, "unit": "mm Hg"},
      {"measurement": "Mean arterial pressure at hours after treatment 4", "setting": "[7]", "value": 143, "unit": "mm Hg"},
      {"measurement": "Mean arterial pressure at hours after treatment 8", "setting": "[7]", "value": 147, "unit": "mm Hg"},
      {"measurement": "Mean arterial pressure at hours after treatment 12", "setting": "[7]", "value": 161, "unit": "mm Hg"},
      {"measurement": "Mean arterial pressure at hours after treatment 18", "setting": "[7]", "value": 165, "unit": "mm Hg"},
      {"measurement": "Mean arterial pressure at hours after treatment 24", "setting": "[7]", "value": 173, "unit": "mm Hg"}
    ]}
  ]
}
